Molecules are shown by their SMILES.

For orientation: IC50 means the concentration needed to halve the response being measured. A higher IC50 goes with weaker potency in that assay. The MIC is the lowest concentration found to suppress growth.

In series [1] the test system is IL-1β. As to the kind of experiment: Bovine whole blood assay, IL-1β.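 Note: compound concentration at which rising IL-1β release signals cytotoxicity.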 The note with it: overstimulation of IL-1β, perceived cellular toxicity concentration. It is filed as cell-based. On the procedure:
(§1) (protected from light) for 30 minutes.

Series [2] relates to TNF-α. Nature of the series: Bovine whole blood assay, LPS-induced TNF-α. It is filed as cell-based. The note with it: Bos taurus, fresh whole bovine blood, LPS 1 μg/mL. On the procedure: as §1
Series [3] deals with BRD pathogens, M. haemolytica and P. multocida. As to the kind of experiment: MIC screening panel, BRD pathogens (CLSI broth micro-dilution). The settings on record: read-out: MIC flag (*) at Ex #. On the technique in general: Broth dilution looks for growth in wells or tubes with falling amounts of substance.

In the case of `CCNC[C@]1(O)[C@H](C)O[C@@H](O[C@H]2[C@H](C)[C@@H](O[C@@H]3O[C@H](C)C[C@H]4[C@H]3OC(C(F)(F)F)N4C)[C@](C)(O)C[C@@H](C)CN[C@H](C)[C@@H](O)[C@](C)(O)[C@@H](CC)OC(=O)[C@@H]2C)C[C@@]1(C)OC` (stereo partly drawn) [Example A-5, (2R,3S,4R,5R,8R,10R,11R,12S,13S,14R)-11-(((3aR,4S,6R,7aS)-1,6-dimethyl-2-(trifluoromethyl)hexahydro-2H-pyrano[4,3-d]oxazol-4-yl)oxy)-2-ethyl-13-(((2R,4R,5S,6S)-5-((ethylamino)methyl)-5-hydroxy-4-methoxy-4,6-dimethyltetrahydro-2H-pyran-2-yl)oxy)-3,4,10-trihydroxy-3,5,8,10,12,14-hexamethyl-1-oxa-6-azacyclopentadecan-15-one], in series [1], the “IL-1β OS of LPS” value stood at 5 µM. Moreover, half-maximal inhibition in series [2] (IC50) was put at 5 µM. Turning to `CC[C@H]1OC(=O)[C@H](C)[C@@H](O[C@H]2C[C@@](C)(OC)[C@](O)(CNCCS(=O)(=O)N(C)C)[C@H](C)O2)[C@H](C)[C@@H](O[C@@H]2O[C@H](C)C[C@H]3[C@H]2OC(C(F)(F)F)N3C)[C@](C)(O)C[C@@H](C)CN[C@H](C)[C@@H](O)[C@]1(C)O` (stereo partly drawn) [Example A-13, 2-((((2S,3S,4R,6R)-6-(((2R,3S,4R,5R,8R,10R,11R,12S,13S,14R)-11-(((3aR,4S,6R,7aS)-1,6-dimethyl-2-(trifluoromethyl)hexahydro-2H-pyrano[4,3-d]oxazol-4-yl)oxy)-2-ethyl-3,4,10-trihydroxy-3,5,8,10,12,14-hexamethyl-15-oxo-1-oxa-6-azacyclopentadecan-13-yl)oxy)-3-hydroxy-4-methoxy-2,4-dimethyltetrahydro-2H-pyran-3-yl)methyl)amino)-N,N-dimethylethane-1-sulfonamide], the “IL-1β OS of LPS” value in series [1] was determined as 40 µM. Further, in series [2], the IC50 came out at 18 µM. On to `CC[C@H]1OC(=O)[C@H](C)[C@@H](O[C@H]2C[C@@](C)(OC)[C@](O)(CNCCOCCO)[C@H](C)O2)[C@H](C)[C@@H](O[C@@H]2O[C@H](C)C[C@H]3[C@H]2OC(C(F)(F)F)N3C)[C@](C)(O)C[C@@H](C)CN[C@H](C)[C@@H](O)[C@]1(C)O` (stereo partly drawn) [Example A-16, (2R,3S,4R,5R,8R,10R,11R,12S,13S,14R)-11-(((3aR,4S,6R,7aS)-1,6-dimethyl-2-(trifluoromethyl)hexahydro-2H-pyrano[4,3-d]oxazol-4-yl)oxy)-2-ethyl-3,4,10-trihydroxy-13-(((2R,4R,5S,6S)-5-hydroxy-5-(((2-(2-hydroxyethoxy)ethyl)amino)methyl)-4-methoxy-4,6-dimethyltetrahydro-2H-pyran-2-yl)oxy)-3,5,8,10,12,14-hexamethyl-1-oxa-6-azacyclopentadecan-15-one], for which, in series [1], the “IL-1β OS of LPS” value was found to be 40 µM. In addition, in series [2], 28 µM corresponded to half-maximal inhibition (IC50). Regarding `CC[C@H]1OC(=O)[C@H](C)[C@@H](O[C@H]2C[C@@](C)(OC)[C@](O)(CNCCC(=O)N(C)C)[C@H](C)O2)[C@H](C)[C@@H](O[C@@H]2O[C@H](C)C[C@H]3[C@H]2OC(C(F)(F)F)N3C)[C@](C)(O)C[C@@H](C)CN[C@H](C)[C@@H](O)[C@]1(C)O` (stereo partly drawn) [Example A-17, 3-((((2S,3S,4R,6R)-6-(((2R,3S,4R,5R,8R,10R,11R,12S,13S,14R)-11-(((3aR,4S,6R,7aS)-1,6-dimethyl-2-(trifluoromethyl)hexahydro-2H-pyrano[4,3-d]oxazol-4-yl)oxy)-2-ethyl-3,4,10-trihydroxy-3,5,8,10,12,14-hexamethyl-15-oxo-1-oxa-6-azacyclopentadecan-13-yl)oxy)-3-hydroxy-4-methoxy-2,4-dimethyltetrahydro-2H-pyran-3-yl)methyl)amino)-N,N-dimethylpropanamide], the minimum inhibitory concentration (MIC) in series [3] was under 64 µg/mL. Same read-out and setting: the result for `CC[C@H]1OC(=O)[C@H](C)[C@@H](O[C@H]2C[C@@](C)(OC)[C@](O)(CNCC3CCN(C(C)=O)CC3)[C@H](C)O2)[C@H](C)[C@@H](O[C@@H]2O[C@H](C)C[C@H]3[C@H]2OC(C(F)(F)F)N3C)[C@](C)(O)C[C@@H](C)CN[C@H](C)[C@@H](O)[C@]1(C)O` (stereo partly drawn) [Example A-18, (2R,3S,4R,5R,8R,10R,11R,12S,13S,14R)-13-(((2R,4R,5S,6S)-5-((((1-acetylpiperidin-4-yl)methyl)amino)methyl)-5-hydroxy-4-methoxy-4,6-dimethyltetrahydro-2H-pyran-2-yl)oxy)-11-(((3aR,4S,6R,7aS)-1,6-dimethyl-2-(trifluoromethyl)hexahydro-2H-pyrano[4,3-d]oxazol-4-yl)oxy)-2-ethyl-3,4,10-trihydroxy-3,5,8,10,12,14-hexamethyl-1-oxa-6-azacyclopentadecan-15-one] reads under 64 µg/mL; that for `CC[C@H]1OC(=O)[C@H](C)[C@@H](O[C@H]2C[C@@](C)(OC)[C@](O)(CNCCn3ccccc3=O)[C@H](C)O2)[C@H](C)[C@@H](O[C@@H]2O[C@H](C)C[C@H]3[C@H]2OC(C(F)(F)F)N3C)[C@](C)(O)C[C@@H](C)CN[C@H](C)[C@@H](O)[C@]1(C)O` (stereo partly drawn) [Example A-19, (2R,3S,4R,5R,8R,10R,11R,12S,13S,14R)-11-(((3aR,4S,6R,7aS)-1,6-dimethyl-2-(trifluoromethyl)hexahydro-2H-pyrano[4,3-d]oxazol-4-yl)oxy)-2-ethyl-3,4,10-trihydroxy-13-(((2R,4R,5S,6S)-5-hydroxy-4-methoxy-4,6-dimethyl-5-(((2-(2-oxopyridin-1(2H)-yl)ethyl)amino)methyl)tetrahydro-2H-pyran-2-yl)oxy)-3,5,8,10,12,14-hexamethyl-1-oxa-6-azacyclopentadecan-15-one], under 64 µg/mL. As to `CC[C@H]1OC(=O)[C@H](C)[C@@H](O[C@H]2C[C@@](C)(OC)[C@](O)(CNCCS(N)(=O)=O)[C@H](C)O2)[C@H](C)[C@@H](O[C@@H]2O[C@H](C)C[C@H]3[C@H]2OC(C(F)(F)F)N3C)[C@](C)(O)C[C@@H](C)CN[C@H](C)[C@@H](O)[C@]1(C)O` (stereo partly drawn) [Example A-20, 2-((((2S,3S,4R,6R)-6-(((2R,3S,4R,5R,8R,10R,11R,12S,13S,14R)-11-(((3aR,4S,6R,7aS)-1,6-dimethyl-2-(trifluoromethyl)hexahydro-2H-pyrano[4,3-d]oxazol-4-yl)oxy)-2-ethyl-3,4,10-trihydroxy-3,5,8,10,12,14-hexamethyl-15-oxo-1-oxa-6-azacyclopentadecan-13-yl)oxy)-3-hydroxy-4-methoxy-2,4-dimethyltetrahydro-2H-pyran-3-yl)methyl)amino)ethane-1-sulfonamide], in series [1], the “IL-1β OS of LPS” value came out at 100 µM. For the same compound, the IC50 in series [2] is 141 µM. Turning to `CCCNC[C@]1(O)[C@H](C)O[C@@H](O[C@H]2[C@H](C)[C@@H](O[C@@H]3O[C@H](C)C[C@H]4[C@H]3OC(C(F)(F)F)N4C)[C@](C)(O)C[C@@H](C)CN(C)[C@H](C)[C@@H](O)[C@](C)(O)[C@@H](CC)OC(=O)[C@@H]2C)C[C@@]1(C)OC` (stereo partly drawn) [Example A-26, (2R,3S,4R,5R,8R,10R,11R,12S,13S,14R)-11-(((3aR,4S,6R,7aS)-1,6-dimethyl-2-(trifluoromethyl)hexahydro-2H-pyrano[4,3-d]oxazol-4-yl)oxy)-2-ethyl-3,4,10-trihydroxy-13-(((2R,4R,5S,6S)-5-hydroxy-4-methoxy-4,6-dimethyl-5-((propylamino)methyl)tetrahydro-2H-pyran-2-yl)oxy)-3,5,6,8,10,12,14-heptamethyl-1-oxa-6-azacyclopentadecan-15-one], the MIC in series [3] is under 64 µg/mL.

The values are drawn from patent publication US12390440B2, “Immunomodulating trifluoromethyl-aminal azalides” (Zoetis Services LLC, priority 2020, dated 2025).
